Measurements taken from article PMC7226045, “Ensartinib (X-396) Effectively Modulates Pharmacokinetic Resistance Mediated by ABCB1 and ABCG2 Drug Efflux Transporters and CYP3A4 Biotransformation Enzyme” (Cancers, 2020).

Columns and labels:
HL60-parent cells = assay: XTT proliferation / drug combination assay, HL60-parent; format: cell-based, human
Procedure: Briefly, HL60-par, HL60-ABCB1, HL60-ABCG2, and HL60-ABCC1 cells were seeded at 2 × 10^4 cells/well in 96-well culture plates. Immediately after seeding, dilutions of the tested drugs or drug combinations were added to the cells. The plates were then incubated under standard conditions (37 °C, 5% CO2) for 48 h, after which XTT solution in PBS (1 mg/mL) and phenazine methosulfate (7.50 µg/mL) were added to the cells and the plates were incubated for another 5 h. Finally, the cells’ absorbance was measured at 450 nm using a microplate reader (Infinite M200, Tecan, Salzburg, Austria). This method was used to assess the effect of ABC transporters on sensitivity to ensartinib and in drug combination assays.
The parent MDCKII and HL60 cells and their ABCB1-, ABCG2-, and ABCC1-overexpressing counterparts were seeded at the densities specified above onto 96-well culture plates and cultured for 24 h. The medium was subsequently replaced with serial dilutions of ensartinib alone or with various concentrations of a model MDR-susceptible cytostatic agent (daunorubicin or mitoxantrone) with or without 10 µM ensartinib. After 48 h incubation, the cells’ viability was determined as described above. In addition to performing IC50-shift analyses, the viability measurements were converted to FA (fraction of cells affected) values and the effects of drug combinations were quantified using the Chou-Talalay combination index (CI) method as implemented in CompuSyn 3.0.1 (ComboSyn Inc., Paramus, NJ, USA). The effects of concomitantly administered drugs were classified as synergistic (CI < 0.9), additive (0.9 < CI < 1.1), or antagonistic (CI > 1.1) based on the computed CI values [57].

CYP1A2 = biological target: T1, CYP1A2 (Homo sapiens, UniProt P05177); assay: Vivid CYP screening kit, recombinant CYP1A2; format: biochemical; conditions: recombinant enzyme
T1 construct: purchased Thermo Fisher Scientific; host or cells: insect microsomal fractions
T1 sequence (P05177 2-516 limits assumed): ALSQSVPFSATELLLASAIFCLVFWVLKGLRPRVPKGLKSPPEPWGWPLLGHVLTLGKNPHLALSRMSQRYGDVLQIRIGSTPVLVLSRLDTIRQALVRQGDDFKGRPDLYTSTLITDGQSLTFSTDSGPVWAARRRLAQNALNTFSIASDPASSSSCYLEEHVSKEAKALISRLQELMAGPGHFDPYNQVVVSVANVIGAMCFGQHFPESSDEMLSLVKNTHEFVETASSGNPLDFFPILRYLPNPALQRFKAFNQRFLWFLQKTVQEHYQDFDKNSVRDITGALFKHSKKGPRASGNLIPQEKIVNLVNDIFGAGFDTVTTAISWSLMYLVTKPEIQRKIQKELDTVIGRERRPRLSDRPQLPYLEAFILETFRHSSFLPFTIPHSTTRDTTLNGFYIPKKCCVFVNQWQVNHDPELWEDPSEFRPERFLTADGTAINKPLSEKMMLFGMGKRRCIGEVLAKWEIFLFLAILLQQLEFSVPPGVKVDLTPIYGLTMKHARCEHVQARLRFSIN
Procedure: CYP inhibitory assay was performed as described previously. Experiments were performed with commercial Vivid CYP screening kits containing insect microsomal fractions enriched with a specific human CYP isoform, human CYP reductase, and in some cases, human cytochrome b5. The potential inhibitory activity of ensartinib toward CYP1A2, CYP2B6, CYP2C8, CYP2C9, CYP2C19, CYP2D6, CYP3A4, and CYP3A5 (i.e., all CYP isoforms that drug regulatory authorities recommend for testing of inhibition by new molecular entities) was then examined. Experiments were performed using a kinetic mode in black 96-well plates according to the manufacturer´s instructions. Briefly, 5-point serial dilutions of ensartinib or the model inhibitor recommended by the manufacturer in buffer were transferred into the wells, then a master mix consisting of a CYP isoenzyme with an NADPH regeneration system in buffer was added. After a 10 min pre-incubation, the reaction was initiated by adding a mixture of NADP^+ and the appropriate Vivid substrate, after which fluorescence was measured at 1 min intervals for 60 min using an Infinite M200 Pro microplate reader (Tecan, Männedorf, Switzerland). The enzyme concentration and incubation interval used for data evaluation (15 min) placed the systems within the linear regions of the appropriate reaction velocity curves. […]

ABCB1 [1] = tested on: T2, ABCB1; assay: ABCB1 ATPase assay (ABCB1-Sf9 membrane fraction); format: biochemical; conditions: ABCB1-Sf9 membranes
T2 construct: purchased Solvo Biotechnology SB MDR1/P-gp; host or cells: Sf9 cell membranes
Procedure: The ABCB1 ATPase assay was performed with minor modifications as described previously. The ATPase activitity was determined using ABCB1 […] ATPase Kit according to the manufacturer’s instructions. Sf9 cell membranes (4 µg protein per well) were mixed with various concentrations of ensartinib. The reaction mixture was then incubated for 10 min at 37 °C in the presence or absence of 1.2 mM sodium orthovanadate. The ATPase reactions were started by the addition of 10 mM ATP magnesium salt and stopped 10 min later. After 30 min incubation, absorbance was measured at 590 nm using the microplate reader (Infinite M200, Tecan, Salzburg, Austria). Phosphate standards were present in each plate; verapamil was used as positive control for ABCB1 stimulation.

ABCG2 = biological target: T3, ABCG2 (Homo sapiens, UniProt Q9UNQ0); assay: hoechst 33342 accumulation assay in MDCKII-ABCG2 cells; format: cell-based; conditions: read-out: IC50, inhibition of ABCG2 (hoechst 33342 accumulation)
T3 construct: expressed in transfected cells; host or cells: MDCKII-ABCG2 (from Dr. Alfred Schinkel, The Netherlands Cancer Institute)
T3 sequence (Q9UNQ0 1-655): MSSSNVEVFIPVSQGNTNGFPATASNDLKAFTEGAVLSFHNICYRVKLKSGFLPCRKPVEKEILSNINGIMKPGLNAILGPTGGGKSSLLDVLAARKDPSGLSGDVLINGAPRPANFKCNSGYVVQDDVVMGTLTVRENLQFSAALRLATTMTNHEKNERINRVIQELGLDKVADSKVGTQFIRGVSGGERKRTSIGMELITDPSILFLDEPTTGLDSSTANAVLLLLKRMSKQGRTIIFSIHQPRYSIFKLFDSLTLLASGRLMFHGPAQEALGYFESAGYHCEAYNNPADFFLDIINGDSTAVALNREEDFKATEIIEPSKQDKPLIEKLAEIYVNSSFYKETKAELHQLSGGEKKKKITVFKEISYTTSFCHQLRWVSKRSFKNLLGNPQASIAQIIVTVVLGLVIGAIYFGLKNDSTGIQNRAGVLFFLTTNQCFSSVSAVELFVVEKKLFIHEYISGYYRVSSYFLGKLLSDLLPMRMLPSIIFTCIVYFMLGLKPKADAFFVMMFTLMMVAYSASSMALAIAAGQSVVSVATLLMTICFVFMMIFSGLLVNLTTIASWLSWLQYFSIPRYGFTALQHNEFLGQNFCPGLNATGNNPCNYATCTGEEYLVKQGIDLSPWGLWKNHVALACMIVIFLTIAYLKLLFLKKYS
Procedure: (§1) Cellular accumulation assay with hoechst 33342 and calcein AM was performed as described previously. Briefly, MDCKII-par, MDCKII-ABCB1, MDCKII-ABCG2, and MDCKII-ABCC1 cells were seeded at densities of 5.0 × 10^4, 5.0 × 10^4, 5.5 × 10^4, and 6.0 × 10^4 cells/well, respectively, on a transparent 96-well plate and grown to full confluence for 24 h under standard conditions. The cells were then washed twice with 1 × PBS, after which was added either a dilution of ensartinib in Opti-MEM (1, 5, 10, 25, or 50 µM) or a specific inhibitor to act as a positive control (1 µM LY335979, 1 µM Ko143, or 25 µM MK-571 for ABCB1, ABCG2, or ABCC1, respectively). Cells were pre-incubated for 10 min, then 8 µM hoechst 33342 (a model substrate for ABCB1 and ABCG2) or 2 µM calcein AM (ABCC1 substrate) diluted in Opti-MEM was quickly added to all wells other than those containing blank samples. The intracellular levels of the substrates were then determined at 1 min intervals for 30 min using a microplate reader (Infinite M200 Pro, Tecan, Männedorf, Switzerland). Fluorescence was monitored in bottom mode using excitation/emission wavelengths of 350/465 and 485/535 nm for hoechst 33342 and calcein AM, respectively.

ABCB1 [2] = biological target: T4, ABCB1 (Homo sapiens, UniProt P08183); assay: hoechst 33342 accumulation assay in MDCKII-ABCB1 cells; format: cell-based; conditions: read-out: IC50, inhibition of ABCB1 (hoechst 33342 accumulation)
T4 construct: expressed in transfected cells; host or cells: MDCKII-ABCB1 (from Dr. Alfred Schinkel, The Netherlands Cancer Institute)
T4 sequence (P08183 whole entry): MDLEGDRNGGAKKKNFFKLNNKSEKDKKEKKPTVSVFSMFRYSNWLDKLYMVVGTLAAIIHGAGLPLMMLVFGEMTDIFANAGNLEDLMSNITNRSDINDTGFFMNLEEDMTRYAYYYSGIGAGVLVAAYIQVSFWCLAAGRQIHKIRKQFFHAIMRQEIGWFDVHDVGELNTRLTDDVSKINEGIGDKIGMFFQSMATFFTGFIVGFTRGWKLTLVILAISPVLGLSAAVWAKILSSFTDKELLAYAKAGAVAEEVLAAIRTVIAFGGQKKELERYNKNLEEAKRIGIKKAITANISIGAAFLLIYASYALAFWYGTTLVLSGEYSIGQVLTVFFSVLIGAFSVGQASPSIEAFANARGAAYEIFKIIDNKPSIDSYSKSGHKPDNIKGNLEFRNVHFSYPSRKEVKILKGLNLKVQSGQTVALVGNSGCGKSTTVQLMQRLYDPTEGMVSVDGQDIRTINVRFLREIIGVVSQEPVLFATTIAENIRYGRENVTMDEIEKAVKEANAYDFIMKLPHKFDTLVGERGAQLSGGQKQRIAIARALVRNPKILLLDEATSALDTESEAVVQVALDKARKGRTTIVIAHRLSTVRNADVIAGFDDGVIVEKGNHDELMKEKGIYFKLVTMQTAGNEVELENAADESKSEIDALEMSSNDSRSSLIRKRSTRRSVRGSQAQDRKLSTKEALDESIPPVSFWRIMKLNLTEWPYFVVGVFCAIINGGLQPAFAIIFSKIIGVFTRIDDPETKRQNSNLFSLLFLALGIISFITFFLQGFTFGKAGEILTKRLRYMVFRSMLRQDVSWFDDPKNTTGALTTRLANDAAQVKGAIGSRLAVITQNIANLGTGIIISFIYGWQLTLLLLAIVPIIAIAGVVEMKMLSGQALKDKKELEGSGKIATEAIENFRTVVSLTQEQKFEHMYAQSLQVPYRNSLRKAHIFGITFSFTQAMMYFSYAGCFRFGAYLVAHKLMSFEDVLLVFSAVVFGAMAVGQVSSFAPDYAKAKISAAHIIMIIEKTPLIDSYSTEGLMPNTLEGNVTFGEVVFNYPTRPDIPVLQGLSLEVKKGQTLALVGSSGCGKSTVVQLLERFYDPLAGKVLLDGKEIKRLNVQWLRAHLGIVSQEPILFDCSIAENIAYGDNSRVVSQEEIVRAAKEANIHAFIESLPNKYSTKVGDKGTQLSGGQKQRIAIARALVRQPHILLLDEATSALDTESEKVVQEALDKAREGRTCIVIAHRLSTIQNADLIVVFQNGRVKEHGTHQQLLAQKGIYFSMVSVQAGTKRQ
Procedure: as §1

`C[C@@H]1CN(C(=O)c2ccc(NC(=O)c3cc(O[C@H](C)c4c(Cl)ccc(F)c4Cl)c(N)nn3)cc2)C[C@H](C)N1` [ensartinib, Ensartinib] was tested, and the “combination effect (Chou-Talalay combination index)” value (HL60-parent cells; HL60 parental, 10 µM ensartinib with daunorubicin or mitoxantrone, whole FA range) was “antagonistic or additive”, the IC50 (HL60-parent cells; Homo sapiens, HL60-parent, 48 h, XTT, read-out: IC50, sensitivity to ensartinib) was 31.9 µM and the “inhibitory effect on CYP1A2 (in words)” value (CYP1A2) was “no appreciable inhibitory effect”. The IC50 (CYP1A2; 15 min incubation, absolute IC50, read-out: CYP1A2 inhibition IC50) was > 50 µM, the “effect on baseline vanadate-sensitive ATPase activity of ABCB1” value (ABCB1 [1]; activation experiment) was “significantly increased” and the “effect on verapamil-stimulated ATPase activity of ABCB1” value (ABCB1 [1]; inhibition experiment) was “significantly decreased”. For the same compound, the IC50 (ABCG2) was 9.13 µM and the IC50 (ABCB1 [2]) was 3.69 µM.
